Reference: publication PMC5045922, “In vivo pharmacological activity and biodistribution of S-nitrosophytochelatins after intravenous and intranasal administration in mice” (Nitric Oxide, 2016)
Read-outs that look alike come from different tables or passages of the source.

Columns and labels:
[1] = design: species or system mice; conditions: CD-1, mouse, in vivo
Method: A total of 48 mice were used (n = 3/group/time point) where the groups represented vehicle (0.9%saline) control, GSNO, SNOPC-2 and SNOPC-6 treatments (n = 3 per group), respectively. A time course study (0, 1, 5 and 15 min) was carried out to characterize the NOx biodistribution after i.n. administration of compounds. Prior to drug administration, mice were anaesthetized by inhaling 2% isoflurane in air via a nose cone. A single volume (20 μL) of test solution in saline (containing 1.25 mmol/L NO ≈ 1 μmol NO/kg body weight) or control (saline) solution was then administered drop wise into the nasal cavity using a micropipette after removing the mouse momentarily from the anaesthetic mask cone and holding it in an upright position. At the appropriate time point animals were exsanguinated by terminal bleed under anaesthesia. Blood and organ samples were collected and processed as described in section 2.4.
Prior to quantification, tissue samples were thawed, weighed and homogenized at 100 mg tissue/mL in phosphate buffered saline (PBS; pH 7.4) using a Silverson model L4RT laboratory homogenizer. Homogenates were centrifuged at 13,000 g for 20 min at 4 °C to remove tissue debris. Whole blood samples were fractionated into plasma (serum + platelets) and blood cells (red and white blood cells) by centrifugation at 1200 g. Cellular blood components were lysed with lysis buffer (5 mmol/L Na o-vanadate, 10 mg/mL benzamidine, 1 mmol/L phenylmethylsulfonyl fluoride (PMSF), 10 mmol/L Tris HCl, 5 mmol/L ethylenediamine tetraacetic acid (EDTA), 50 mmol/L NaCl pH 7.4 and 3.5 mmol/L SDS) at a volume ratio of 1:5 cells: lysis buffer. These samples were centrifuged at 13,000 g for 20 min at 4 °C. Protein content of each sample was quantified using the Bradford assay.
Quantification of total NOx was performed according to a method described by Verdon et al.. Briefly, samples were de-proteinated by mixing the sample with 0.3 mol/L NaOH and aqueous 0.27 mol/L ZnSO4 at a volume ratio of 1:1:2. NOx was determined in 50 μL de-proteinated sample in the form of nitrite using the colorimetric Griess method, [28]. The amount of nitrite in each sample was calculated from a linear calibration curve of known nitrite concentrations (linear range: 1–100 μmol/L) and normalized for total amount of protein (mg), quantified using the Bradford assay. The final concentration, expressed as μM nitrite/mg protein, represents the total NOx in the system. Any remaining nitrite in the infusate (drug solution administered) was not measured as we were more interested in in vivo changes in NOx levels in untreated versus different treated groups at different time points measured but we have previously characterized this.

[2] = CD-1, mouse, in vivo, iv
CD-1 mice = type: in vivo; conditions: for Tmax (time at which the maximum response occurred): in vivo, iv
Method: In vivo blood pressure was monitored in anaesthetized animals as previously described. A total of 12 wild type male mice were used (n = 3/group) where the groups represented the vehicle (0.9% saline) control, GSNO, SNOPC-2 and SNOPC-6 treatments, respectively. Mean arterial pressure was recorded in anaesthetized mice (2% isoflurane in air) on a homeothermically controlled heating blanket (Harvard Instruments, Edenbridge, UK). A 1.2F microtip pressure catheter (Scisense, Transonic Systems, Ithaca, NY, USA) was inserted into the right carotid artery and basal arterial pressure was recorded for 5 min. Test drug solutions (50 μL containing 500 μmol/L NO ≈ 1 μmol NO/kg body weight) or control (saline) solution were directly injected into the jugular vein using a 30 gauge needle inserted through the underlying muscle. Arterial blood pressure was recorded continuously for a further 5 min following drug administration using a PowerLab data acquisition system and Chart 7 software (ADInstuments, Oxford, UK).

[3] = design: method as in PMID 26686469; conditions: after equilibration of the NO moiety amongst plasma thiols via S-transnitrosylation; cited from earlier work
[4] = cited from earlier work
[5] = inhaled or intranasal, 1 umol/kg
[6] = 10 μmol/L, human plasma and whole blood ex vivo

| Compound | half-life [3] | decomposition within the first 5 min [4, 6] [%] | time to full decomposition [4, 6] [min] | NOx tmax Heart [1] [min] | NOx tmax Liver [1] [min] | NOx tmax Lung [1] [min] | NOx tmax Plasma [1] [min] | NOx tmax Heart [2] [min] | NOx tmax Liver [2] [min] | NOx tmax Lung [2] [min] | NOx tmax Plasma [2] [min] | Tmax (time at which the maximum response occurred) (CD-1 mice; male, CD-1, mouse) [min] | also measured |
| --- | --- | --- | --- | --- | --- | --- | --- | --- | --- | --- | --- | --- | --- |
| N[C@@H](CCC(=O)N[C@@H](CSN=O)C(=O)NCC(=O)O)C(=O)O [GSNO, S-nitrosoglutathione] | about 5 min | ~85 | ≤ 15 | – | – | – | – | – | – | – | – | – | NOx tmax Heart [1, 5]: 5 min; NOx tmax Liver [1, 5]: 5 min; NOx tmax Lung [1, 5]: 1 min; NOx tmax Plasma [1, 5]: 5 min; NOx tmax Heart ([2]; 1 umol/kg): 3 min; NOx tmax Liver ([2]; 1 umol/kg): 5 min; NOx tmax Lung ([2]; 1 umol/kg): 1 min; NOx tmax Plasma ([2]; 1 umol/kg): 1 min; reduction in blood pressure (CD-1 mice; i.v., 1 μmol NO/kg body weight, CD-1 mice, compared to saline): 30–35%; Tmax (time at which the maximum response occurred) (CD-1 mice; mouse): 0.083 min; Half-life of decomposition [4, 6]: ~2 min |
| N[C@@H](CCC(=O)N[C@@H](CSN=O)C(=O)N[C@@H](CCC(=O)N[C@@H](CSN=O)C(=O)NCC(=O)O)C(=O)O)C(=O)O [SNOPC-2] | – | – | – | 5 | 5 | 1 | 5 | 1 | 3 | 1 | 1 | 0.083 | – |
| N[C@@H](CCC(=O)N[C@@H](CSN=O)C(=O)N[C@@H](CCC(=O)N[C@@H](CSN=O)C(=O)N[C@@H](CCC(=O)N[C@@H](CSN=O)C(=O)N[C@@H](CCC(=O)N[C@@H](CSN=O)C(=O)N[C@@H](CCC(=O)N[C@@H](CSN=O)C(=O)N[C@@H](CCC(=O)N[C@@H](CSN=O)C(=O)NCC(=O)O)C(=O)O)C(=O)O)C(=O)O)C(=O)O)C(=O)O)C(=O)O [SNOPC-6] | – | – | – | 5 | 5 | 1 | 5 | 1 | 5 | 1 | 3 | 0.083 | – |
| S-nitrosated cysteine [CySNO] | about 5 min | ~85 | ≤ 15 | – | – | – | – | – | – | – | – | – | Half-life of decomposition ([4]; human): approximately 50 s |
